Results taken from patent publication US8050868B2, “Methods for determining the organization of a cellular component of interest” (Cellomics, Inc., priority 2001, dated 2011).

Assays:
epithelial cells = assay: Cell-based analysis of microtubule-targeting drugs, anti-tubulin immunocytochemistry, epithelial cells
Description: (§1) The mechanism of action of microtubule-targeting drugs was assessed in a cell component of interest field, represented as an image of tubulin-stained cells. Fibroblasts, epithelial cells,) and monocytes were left untreated ) or were treated with a variety of microtubule-targeting drugs. Cells were fixed and then stained with anti-tubulin immunocytochemistry, in order to determine how the different drugs affect morphological organization of microtubules.

tubulin [1] = assay: Population analysis of spatial organization of tubulin with five annular domains; details: five perinuclear annular domains; n>20 cells; duplicate
microtubules [2] = assay: Microtubule organization using concentric perinuclear ring masks; assay type: cell-based; details: for effect on microtubule organization / pattern of microtubule-associated fluorescence: similarity to other treatments: five sequential dilations of perinuclear ring mask, duplicate wells
Description: Domains were defined by five sequential dilations of a perinuclear ring mask, and measurements were made of the mean microtubule-associated intensity, the standard deviation of the microtubule-associated intensity, the mean cytoplasm to nucleus fluorescence intensity ratio, and cell-normalized microtubule fluorescence intensity. For each drug treatment condition, experiments were performed in duplicate.
Finally, the slope of the best linear fit of the microtubule associated fluorescence was calculated as a function of the angular dilation. This way, it was possible to compare the rate of change of these parameters as a function of domain position.

3T3 cells [3] = assay: Histogram distribution of microtubule-associated pixel intensities (OD variance); assay type: cell-based; details: individual 3T3 cells
Description: Finally, histogram distribution of microtubule-associated pixel intensities in individual 3T3 cells was used to distinguish control cells from cells treated with nocodazole, paclitaxel, and vinblastine.

microtubules [4] = assay: Preliminary time-course and 12 hour dose-response evaluations of microtubule polymer mass; assay type: cell-based
Description: (§2) Cell culture/drug treatments: Cells were plated on 96-well plates in the appropriate cell culture media plus 10% FBS. […] Different plating densities and treatment times were explored to maximize the observable effects of the drugs.
(§3) Immunofluorescence: This included three steps: (1) Extraction of soluble (monomeric) tubulin by permeabilizing the cells with 0.5% Triton X-100 in a microtubule stabilizing buffer, in order to remove unpolymerized tubulin. (2) Fixation of intracellular protein with 4% formaldehyde. (3) Microtubule, DNA, and (optional) total cellular protein fluorescence labeling. Microtubule staining was carried out by a standard immunofluorescence procedures using a primary mouse monoclonal antibody (anti-tubulin IgG), and affinity purified polyclonal secondary antibody (ALEXA FLUOR® 488-conjugated anti-mouse IgG (Molecular Probes, Inc. Eugene, OR)). After the cells were stained, DNA was labeled with 10 microgram/ml Hoechst 33342.
(§4) For cells triple-stained with tetramethylrhodamine iodoacetate (TMRIA) (Molecular Probes), Hoechst 33342, and ALEXA FLUOR® 488 (tubulin), or cells double stained with Hoechst 33342 and ALEXA FLUOR® 488, an XF57 filter block was used.
Image Analysis: Quantitative determination of microtubule polymer levels was performed using the methods described above. For analysis, a binary nuclear mask was made by thresholding the Hoechst image. The nuclear image was dilated to produce a perinuclear ring mask, where cytoplasmic tubulin polymer was measured. The ring mask allowed measurement of average intensity levels associated with the microtubule image. […] Other methods of image analysis that were used are described below.
Quantitation of microtubule-associated intensity was carried out by summing the pixel intensities in the microtubule (MT) channel in the area covered by the perinuclear ring mask. This integrated pixel intensity was then divided by the actual area of the perinuclear ring mask to arrive at the mean or “average” pixel intensity in the region covered by the perinuclear ring. From these measurements a MT polymerization index was calculated by normalizing the amount of MT fluorescence in a treated, “experimental” cell population, versus the amount of MT-associated fluorescence in an untreated, control cell population. This polymerization index represents a fraction or percentage of MT polymerization or depolymerization, relative to the untreated controls. Other methods of quantitation that were used are described below.
In addition, preliminary time-course and 12 hour dose-response evaluations using paclitaxel, nocodazole, and vinblastine were performed.

tubulin [5] = details: single annular domain divided into 24 angular domains
3T3 cells [6] = assay: Quantitative determination of microtubule polymer content (perinuclear ring mask, anti-tubulin immunofluorescence); assay type: cell-based; details: two-hour treatment
Description: as §2
Immunofluorescence: This included three steps: (1) Extraction of soluble (monomeric) tubulin by permeabilizing the cells with 0.5% Triton X-100 in a microtubule stabilizing buffer, in order to remove unpolymerized tubulin. (2) Fixation of intracellular protein with 4% formaldehyde. (3) Microtubule, DNA, and (optional) total cellular protein fluorescence labeling. […]
Image Analysis: Quantitative determination of microtubule polymer levels was performed using the methods described above. […] The nuclear image was dilated to produce a perinuclear ring mask, where cytoplasmic tubulin polymer was measured. […]
Quantitation of microtubule-associated intensity was carried out by summing the pixel intensities in the microtubule (MT) channel in the area covered by the perinuclear ring mask. […] From these measurements a MT polymerization index was calculated by normalizing the amount of MT fluorescence in a treated, “experimental” cell population, versus the amount of MT-associated fluorescence in an untreated, control cell population. […] Other methods of quantitation that were used are described below. […]

Fibroblasts = assay: Cell-based analysis of microtubule-targeting drugs, anti-tubulin immunocytochemistry, fibroblasts
Description: as §1

microtubules [7] = assay: Peaks and valleys of pixel intensity around the perinuclear ring mask (modal classification)
monocytes = assay: Cell-based analysis of microtubule-targeting drugs, anti-tubulin immunocytochemistry, monocytes
Description: as §1

microtubules [8] = assay: Microtubule organization using a single perinuclear ring mask and field based threshold measurements (spot count, spot area); assay type: cell-based; details: min-max plates
Description: as §2, §3, §4

tubulin [9] = assay: Multi-domain analysis of tubulin organization (angular, transverse, annular domains); assay type: cell-based; details: single cell
Description: Referring to FIG. 8, experiments were conducted to analyze tubulin organization in untreated (8A-D) and drug-treated (8E-H) fields of cells using angular (8B,F), transverse (8C, G) or annular domains (8D,H). […] For the purpose of analysis, cell boundaries were defined (8B-D, 8F-H) based on the reference component origin (which here is the nuclear perimeter). The component of interest field was thresholded to show the brightest pixels, and a single cell is shown for illustration purposes.
The spatial organization of intensity distribution within individual cells was then analyzed in an object of interest image, using annular domains (as in FIGS. […]). The data are shown in FIG. 9 as graphs of tubulin distribution in a single control (9A-C) and a vinblastine-treated cell (9D-F). Annular domains were created by sequential dilations of the nuclear perimeter. The position of the domain furthest away from the nucleus was given a value of one, and domain position increases in number with nuclear proximity. For each plot, measurements of tubulin distribution were normalized, by dividing the measurement obtained in a particular domain by the measurement obtained in the domain that is immediately adjacent to the nucleus. Intensity distribution within each domain was analyzed using a mathematical function to calculate the following: (1) the average pixel intensity (a measure proportional to tubulin mass) (9A, D); (2) texture difference moment (a measure proportional to tubulin periodicity) (9B, E); and (3) OD variance (a measure proportional to tubulin clustering) (9C,F). To determine the trends within each cell, data points were fitted with a linear function. […] For comparing cell populations under different treatment conditions, a number of cells in each condition can be analyzed as a sample, and the average slope within each sample used for statistical analysis.

[10] = nanomolar concentrations, 12 hour incubation
[11] = micromolar doses, 12 hour incubation

Structure (SMILES) | morphological organization of microtubules (epithelial cells) | standard deviation of mean tubulin fluorescence: similarity of tubulin organization to other treatments (tubulin [1]) | slope of best linear fit of microtubule associated fluorescence vs domain position: similarity to other treatments (microtubules [2]) | effect on microtubule organization (microtubules [2]) | pattern of microtubule-associated fluorescence: similarity to other treatments (microtubules [2]) | whether OD variance of the pixel intensity distribution distinguishes treated vs. control cell populations (3T3 cells [3]) | effect on microtubules and cell division (microtubules [4]; [10]) | above threshold peaks in intensity distribution per cell, on average (tubulin [5]) | morphological organization of microtubules (Fibroblasts) | type of spatial distribution of fluorescent pixel intensities at the nuclear periphery (mono-modal, non-modal, multi-modal) (microtubules [7]) | morphological organization of microtubules (monocytes) | well average spot area (microtubules [8]) | well normalized spot counts (microtubules [8]) | other results
COC(=O)Nc1nc2ccc(C(=O)c3cccs3)cc2[nH]1 [nocodazole] | induced microtubule depolymerization and led to diffuse staining of tubulin throughout the cell cytoplasm | more similar to colchicine-treated cells | most similar to the slope of cells treated with colchicine | microtubule disruption | resembled colchicine treated cells | could distinguish | inhibit cell division without necessarily inducing the net depolymerization of microtubules | 2 spots | depolymerized the microtubules, and led to a diffuse staining of tubulin throughout the cytoplasm | Non-modal | led to microtubule depolymerization and led to diffuse tubulin staining | – | – | microtubule polymer mass (microtubules [4]; [10]): increase; cell-associated microtubule intensity (3T3 cells [6]; 5 micromolar): significant decrease
CC(=O)O[C@H]1C(=O)[C@@]2(C)[C@H]([C@H](OC(=O)c3ccccc3)[C@]3(O)C[C@H](OC(=O)[C@H](O)[C@@H](NC(=O)c4ccccc4)c4ccccc4)C(C)=C1C3(C)C)[C@]1(OC(C)=O)CO[C@@H]1C[C@@H]2O [paclitaxel, Paclitaxel] | induced formation of microtubule bundles in association with the cell edge | more similar to vinblastine-treated cells | most similar to the slope of cells treated with vinblastine | formation of microtubule bundles or aggregates in the cytoplasm | resembled vinblastine treated cells | could distinguish | – | 4 spots | formation of microtubule bundles, and destroyed the focal organization of microtubules | Multimodal | decreased microtubule staining in the nuclear region | increased | partly increased | quality of dose-response data (microtubules [4]; 12 hour dose-response, preliminary): excellent dose response data; cell-associated microtubule intensity (3T3 cells [6]; 1 micromolar): significant increase
CC[C@]1(O)C[C@@H]2CN(CCc3c([nH]c4ccccc34)[C@@](C(=O)OC)(c3cc4c(cc3OC)N(C)[C@H]3[C@@](O)(C(=O)OC)[C@H](OC(C)=O)[C@]5(CC)C=CCN6CC[C@]43[C@@H]65)C2)C1 [vinblastine] | disrupted the microtubules and led to the formation of tubulin paracrystals | – | – | formation of microtubule bundles or aggregates in the cytoplasm | – | could not distinguish | depolymerized microtubules and inhibited microtubule polymerization | 3 spots | depolymerized the microtubules and led to the formation of tubulin paracrystals | Multimodal | intermediate effect between nocodazole and paclitaxel | significant decrease | partly increasing | effect on tubulin organization (microtubules [4]; [11]): induced the formation of tubulin paracrystals; microtubule polymer mass (microtubules [4]; [11]): apparent increase; distribution of brightest thresholded pixels over angular, transverse or annular domains (tubulin [9]; FIG. 8): broader distribution; OD variance (tubulin clustering) as a function of domain position (tubulin [9]; FIG. 9): marked decrease; texture difference moment (tubulin periodicity) as a function of distance from the nucleus (tubulin [9]; FIG. 9): centrifugal increase; trend of average pixel intensity (tubulin mass) as a function of annular domain position (tubulin [9]; linear fit, FIG. 9): positive slope
